According to patent US4925930A, “Synthesis and anti-leukemic activity of alkyl-1-(β-D-ribofuranosyl)[1,2,4]triazole-3-carboximidates” (Nucleic Acid Research Institute, priority 1988, dated 1990):
Where “and” joins values, the source holds several entries; their conditions need not be identical. Equal entries are not always repeated. Where two headings read alike, the source gives them in different places.

Legend:
HIV = conditions: human T lymphocytes; 50 μg/mL; cited from earlier work
visna = type: cell-based; conditions: cell culture
[1] = test system: WI-L2 human B lymphoblastic leukemia; assay: In vitro growth inhibition of WI-L2; type: cell-based; conditions: in vitro cell culture
Protocol: (§1) Compounds (4)and (5) were also tested in vitro for their capacity to inhibit the growth of L1210 murine lymphocytic leukemia, WI-L2 human B lymphoblastic leukemia, and CCRF-CEM human T lymphoblastic leukemia in vitro.

[2] = in water; for maximum dosage which could be delivered as a single bolus (maximum soluble dosage): 0.01 ml/gram mouse weight
[3] = test system: CCRF-CEM human T lymphoblastic leukemia; assay: In vitro growth inhibition of CCRF-CEM; type: cell-based; conditions: in vitro cell culture
Protocol: as §1

Friend leukemia = conditions: for Spleen Weight / tox (in Spleen Weight column): day 1,3,5,7,9,11, ip; for Spleen Weight: control w/tumor 1538 ± 561, wo/tumor 82 ± 11; for Friend leukemia-related splenomegaly diminished: nontoxic dosing
murine leukemia L1210 = assay: in vivo; type: in vivo; conditions: for Residual Cell Population After Last Treatment: calculated from inoculum response data; for antitumor activity in vivo: summary, as per Examples 6 and 7 (L1210 and Friend leukemia)
Source text: (§2) In Vivo assessments of therapeutic efficacy and host toxicity with murine leukemia L1210 were made as detailed in M. Kuehl; D. I. Brixner; A. D. Broom; T. L. Avery; R. L. Blakley, Cancer Res., 1988, 48, 1481.
(§3) ^b Treatment responses (6 mice/treatment group) presented as % T/C
(§4) ^c Calculations of residual leukemic cell populations were made using
(§5) ^a Except where otherwise indicated, all solutions were delivered ip

parainfluenza type 3 = type: cell-based; conditions: cell culture
[4] = test system: L1210 murine lymphocytic leukemia; assay: In vitro cytotoxicity / growth inhibition of L1210 murine lymphocytic leukemia; type: cell-based; conditions: for in vitro growth inhibition: L1210, in vitro cell culture; for cytotoxicity for L1210 cells: cells growing in vitro
semliki forest = type: cell-based; conditions: cell culture
rhino A = type: cell-based; conditions: cell culture
[5] = test system: herpes simplex type 2 viruses; type: cell-based; conditions: cell culture
influenza A = type: cell-based
viruses = assay: Cell culture antiviral activity (general statement); type: cell-based
adeno type 2 = type: cell-based; conditions: cell culture
in vivo = type: in vivo; conditions: mouse, in vivo, ip, read-out: maximum non-lethal dosage
Source text: as §2, §3, §4, §5

[6] = bid, day 1,3,5,7, 480 mg/kg, ip
[7] = qd, day 1-7, 480 mg/kg, ip, 480 mg/kg
[8] = qd, day 1, 480 mg/kg, ip, 480 mg/kg

Structure (SMILES): NC(=O)c1ncn([C@@H]2O[C@H](CO)[C@@H](O)[C@H]2O)n1 [ribavirin, 1-(β-D-ribofuranosyl)-[1,2,4]triazole-3-carboxamide]
- inhibition of HIV replication (HIV): inhibits the replication

Structure (SMILES): COC(=N)c1ncn([C@@H]2O[C@H](CO)[C@@H](O)[C@H]2O)n1 [Compound (4), Methyl-1-(β-D-ribofuranosyl)[1,2,4]triazole-3-carboximidate]
- antiviral activity (visna): inactive
- in vitro growth inhibition [1]: neither compound demonstrated in vitro growth inhibition
- water solubility relative to biological activity [2]: limited water solubility
- maximum dosage which could be delivered as a single bolus (maximum soluble dosage) [2]: 480 mg/kg
- in vitro growth inhibition [3]: neither compound demonstrated in vitro growth inhibition
- Spleen Weight (Friend leukemia; bid, 288 mg/kg, P < 0.005): 150 ± 53 mg
- tox (in Spleen Weight column) (Friend leukemia; bid, 480 mg/kg): tox
- Friend leukemia-related splenomegaly diminished (Friend leukemia): significantly diminished
- Spleen Weight (Friend leukemia; qd, 288 mg/kg, P < 0.02): 599 ± 133 mg
- Spleen Weight (Friend leukemia; qd, 480 mg/kg, P < 0.01): 216 ± 60 mg
- Postinoculation Lifespan (% T/C) (murine leukemia L1210; [6]): 162 % T/C
- Residual Cell Population After Last Treatment (murine leukemia L1210; [6]): 12 % of control
- Postinoculation Lifespan (% T/C) (murine leukemia L1210; bid, day 1-7, 480 mg/kg, ip): 101 % T/C
- Postinoculation Lifespan (% T/C) (murine leukemia L1210; bid, day 1, 480 mg/kg, ip): 125 % T/C
- Residual Cell Population After Last Treatment (murine leukemia L1210; bid, day 1, 480 mg/kg, ip): 9 % of control
- T/C (murine leukemia L1210; qd day 1, maximum soluble dosage, 480 mg/kg, repeated): ≈ 115
- Postinoculation Lifespan (% T/C) (murine leukemia L1210; qd, day 1,3,5,7, 480 mg/kg, ip): 121 % T/C
- Residual Cell Population After Last Treatment (murine leukemia L1210; qd, day 1,3,5,7, 480 mg/kg, ip): 46 % of control
- Postinoculation Lifespan (% T/C) (murine leukemia L1210; qd, day 1,4,7, 480 mg/kg, ip): 119 % T/C
- Residual Cell Population After Last Treatment (murine leukemia L1210; qd, day 1,4,7, 480 mg/kg, ip): 73 % of control
- Postinoculation Lifespan (% T/C) (murine leukemia L1210; [7]): 162 % T/C and 142 % T/C
- Residual Cell Population After Last Treatment (murine leukemia L1210; [7]): 12 % of control and 7 % of control
- Postinoculation Lifespan (% T/C) (murine leukemia L1210; qd, day 1-7, 480 mg/kg, po): 97 % T/C
- Residual Cell Population After Last Treatment (murine leukemia L1210; qd, day 1-7, 480 mg/kg, po): 139 % of control
- Postinoculation Lifespan (% T/C) (murine leukemia L1210; [8]): 113 % T/C and 114 % T/C and 116 % T/C
- Residual Cell Population After Last Treatment (murine leukemia L1210; [8]): 32 % of control and 30 % of control and 21 % of control
- lethal toxicity (murine leukemia L1210; qid day 1, 480 mg/kg/injection): lethally toxic
- Postinoculation Lifespan (% T/C) (murine leukemia L1210; qid, day 1, 480 mg/kg, ip): 60 % T/C
- antitumor activity in vivo (murine leukemia L1210): significant antitumor activity in vivo
- T/C (murine leukemia L1210; tid day 1, 480 mg/kg/injection): 153
- leukemic cell kill (murine leukemia L1210; tid day 1, 480 mg/kg/injection): > 99%
- Postinoculation Lifespan (% T/C) (murine leukemia L1210; tid, day 1,3,5,7, 480 mg/kg, ip): 76 % T/C
- Postinoculation Lifespan (% T/C) (murine leukemia L1210; tid, day 1-7, 480 mg/kg, ip): 61 % T/C
- Postinoculation Lifespan (% T/C) (murine leukemia L1210; tid, day 1, 480 mg/kg, ip): 153 % T/C
- Residual Cell Population After Last Treatment (murine leukemia L1210; tid, day 1, 480 mg/kg, ip): 0.6 % of control
- antiviral activity (parainfluenza type 3): inactive
- in vitro growth inhibition [4]: neither compound demonstrated in vitro growth inhibition
- cytotoxicity for L1210 cells [4]: neither compound (4) nor compound (5) was cytotoxic
- antiviral activity (semliki forest): inactive
- antiviral activity (rhino A): inactive
- antiviral activity [5]: inactive
- antiviral activity (influenza A): inactive
- cell culture antiviral activity (viruses): devoid themselves of cell culture antiviral activity
- antiviral activity (adeno type 2): inactive

Structure (SMILES): CCOC(=N)c1ncn([C@@H]2O[C@H](CO)[C@@H](O)[C@H]2O)n1 [Compound (5), Ethyl-1-(β-D-ribofuranosyl)[1,2,4]triazole-3-carboximidate]
- antiviral activity (visna): inactive
- in vitro growth inhibition [1]: neither compound demonstrated in vitro growth inhibition
- maximum dosage which could be delivered as a single bolus (maximum soluble dosage) [2]: 3704 mg/kg
- in vitro growth inhibition [3]: neither compound demonstrated in vitro growth inhibition
- Friend leukemia-related splenomegaly diminished (Friend leukemia): not
- Spleen Weight (Friend leukemia; qd, 480 mg/kg): 1257 ± 185 mg
- tox (in Spleen Weight column) (Friend leukemia; qd, 800 mg/kg): tox
- tox (in Spleen Weight column) (Friend leukemia; qd, 1333 mg/kg): tox
- MTD (in vivo; qd day 1): 1330 mg/kg
- MTD (in vivo; qd days 1-7): 288 mg/kg
- dosage/schedule dependence of anti-L1210 activity (murine leukemia L1210; mouse, in vivo): more dosage than schedule dependent
- lethal toxicity for L1210-inoculated mice (murine leukemia L1210; mouse, in vivo, 3704 mg/kg): lethally toxic
- therapeutic efficacy (murine leukemia L1210; qd day 1, 288 mg/kg): decline of therapeutic efficacy
- leukemic cell kill (murine leukemia L1210; qd day 1, 1333 mg/kg, gauged by inoculum response data): 98.7%
- T/C (murine leukemia L1210; qd day 1, maximum non-lethal dosage, 1333 mg/kg): 149
- lethal toxicity (murine leukemia L1210; qd days 1-7, compared with qd day 1): lethal toxicity was produced by lower dosages
- increase in mean life span (T/C) (murine leukemia L1210; qd days 1-7, maximum non-lethal dosage, 288 mg/kg): 144
- Postinoculation Lifespan (% T/C) (murine leukemia L1210; qd, day 1-7, 288 mg/kg, ip): 144 % T/C
- Residual Cell Population After Last Treatment (murine leukemia L1210; qd, day 1-7, 288 mg/kg, ip): 1.7 % of control
- Postinoculation Lifespan (% T/C) (murine leukemia L1210; qd, day 1-7, 480 mg/kg, ip): 134 % T/C
- Postinoculation Lifespan (% T/C) (murine leukemia L1210; qd, day 1-7, 800 mg/kg, ip): 70 % T/C
- Postinoculation Lifespan (% T/C) (murine leukemia L1210; qd, day 1, 288 mg/kg, ip): 114 % T/C
- Residual Cell Population After Last Treatment (murine leukemia L1210; qd, day 1, 288 mg/kg, ip): 27.0 % of control
- Postinoculation Lifespan (% T/C) (murine leukemia L1210; qd, day 1, 480 mg/kg, ip): 149 % T/C
- Residual Cell Population After Last Treatment (murine leukemia L1210; qd, day 1, 480 mg/kg, ip): 1.1 % of control
- Postinoculation Lifespan (% T/C) (murine leukemia L1210; qd, day 1, 800 mg/kg, ip, 800 mg/kg): 159 % T/C and 144 % T/C
- Postinoculation Lifespan (% T/C) (murine leukemia L1210; qd, day 1, 1333 mg/kg, ip): 149 % T/C
- Residual Cell Population After Last Treatment (murine leukemia L1210; qd, day 1, 1333 mg/kg, ip): 1.3 % of control
- Postinoculation Lifespan (% T/C) (murine leukemia L1210; qd, day 1, 2222 mg/kg, ip): 92 % T/C
- Postinoculation Lifespan (% T/C) (murine leukemia L1210; qd, day 1, 3704 mg/kg, ip): 48 % T/C
- antitumor activity in vivo (murine leukemia L1210): significant antitumor activity in vivo
- antiviral activity (parainfluenza type 3): inactive
- in vitro growth inhibition [4]: neither compound demonstrated in vitro growth inhibition
- cytotoxicity for L1210 cells [4]: neither compound (4) nor compound (5) was cytotoxic
- antiviral activity (semliki forest): inactive
- antiviral activity (rhino A): inactive
- antiviral activity [5]: inactive
- antiviral activity (influenza A): inactive
- cell culture antiviral activity (viruses): devoid themselves of cell culture antiviral activity
- antiviral activity (adeno type 2): inactive
